Laboratory results from patent publication US8236824B2, “N-(pyrazole-3-yl)-benzamide derivatives as glucokinase activators” (Merck Patent Gesellschaft mit Beschränkter Haftung, priority 2007, dated 2012).

Each compound was assayed against T1, glucokinase (GK), human enzyme (Homo sapiens, UniProt P35557) (assay: Glucokinase Activation Screening Assay (coupled enzyme assay with PK/LDH, NADH decline at 340 nm)). Conditions: 2 mM glucose.
T1 sequence (P35557 1-465): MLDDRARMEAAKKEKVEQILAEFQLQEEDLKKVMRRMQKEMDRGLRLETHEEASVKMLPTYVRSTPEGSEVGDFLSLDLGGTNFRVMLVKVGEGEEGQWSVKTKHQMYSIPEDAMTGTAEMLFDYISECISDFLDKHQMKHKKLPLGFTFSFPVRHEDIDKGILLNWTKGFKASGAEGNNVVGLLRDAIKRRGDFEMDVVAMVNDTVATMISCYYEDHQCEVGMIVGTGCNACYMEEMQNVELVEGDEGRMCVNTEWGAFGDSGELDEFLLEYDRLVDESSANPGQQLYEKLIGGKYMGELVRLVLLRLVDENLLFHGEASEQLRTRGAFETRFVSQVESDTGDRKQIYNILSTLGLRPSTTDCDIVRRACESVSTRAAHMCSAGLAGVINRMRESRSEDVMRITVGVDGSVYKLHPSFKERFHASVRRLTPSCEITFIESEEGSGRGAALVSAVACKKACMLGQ
Assay type: biochemical
Method: Glucokinase Activation Screening Assay
GK activity (human or rat enzyme) is measured by an coupled enzyme assay using pyruvate kinase (PK) and lactate dehydrogenase (LDH) as coupling enzymes. GK activity is calculated from the decline in NADH monitored photometrically with a microliter plate (MTP) reader at 340 nm. For screening purposes, the GK assay is routinely run in a 384-MTP format, in a total volume of 33 μl/well. 10 μl of the ATP-regeneration solution (in HEPES-buffer*, pH 7.0, 6.73 U/ml pyruvate kinase, 6.8 U/ml lactate dehydrogenase) and 10 μl of the glucokinase-/glucose solution (15 μg/ml, 6.6 mM glucose in HEPES-buffer*, pH 7.0; the concentration of the glucose stock-solution was 660 mM in Millipore H2O) were mixed together with 3 μl of a 10% DMSO solution (in HEPES-buffer*, pH 7.0) containing […] the amounts of the compounds to achieve final compound concentrations in the range between 1 nM to 30 μM (sometimes 300 μM) in the assay solution (s. below). The solutions were mixed for 5 sec, and after a centrifugation at 243×g for 5 min, the solutions were preincubated for 25 min at room temperature.
The reaction was started by the addition of 10 μl of the NADH-/ATP-solution (4.29 mM NADH, 4.95 mM ATP, in HEPES-buffer*). The MTP was shaken for 5 sec., and then, the absorbance at 340 nm was monitored continuously in a MTP-reader (TECAN Spectro fluor plus) for the next 27 min (with a MTP-cycling time of 199 sec.). The final concentrations of the various components were as follows: 49.5 mM Hepes, pH 7.0, 1.49 mM PEP, 1.3 mM NADH, 49.5 mM KCl, 4.96 mM MgCl2, 1.5 mM Mg-ATP, 1.98 mM DTT, 2.04 U/ml pyruvate kinase, 2.06 U/milactate-dehydrogenase, 0.91% DMSO, 0.15 μg/well glucokinase, and test compounds in the range between 1 nM and 300 μM.
The change in the optical density (ΔOD340 nm) in the presence of the compound was expressed relative to the ΔOD340 nm, ctrl of the control incubation (in the presence of 2 mM glucose and 0.91% DMSO), taking into account the optical density of the blank sample (incubation in the absence of 2 mM glucose). For the determination of the half maximal effective concentration (EC50), the %-Ctrl-values were plotted in a semi-logarithmic graph against the conc. of the compound of interest. The data points were fitted to a sigmoid curve function (f(x)=((%-Ctrlmax-%-Ctrlmin)/(1−(EC50/x**^n(Hill)))%-Ctrlmin)) by a non-linear regression analysis. • Hepes-buffer (50 mM Hepes, pH 7.0, 5 mM MgCl2, 50 mM KCl, 1.5 mM PEP, 0.1% BSA). DTT was added to the Hepes-buffer from a 200× stock solution (in Millipore H2O) freshly each day. The final concentration of DTT in the Hepes-buffer is 2 mM. Culture of Pancreatic INS-1 Cells

Compound	EC50 [nM]
COC[C@H](C)Oc1cc(O[C@@H](C)Cc2ccccc2)cc(C(=O)Nc2ccn(Cc3ccccn3)n2)c1 [A5, 3-((S)-2-Methoxy-1-methyl-ethoxy)-5-((S)-1-methyl-2-phenyl-ethoxy)-N-(1-pyridine-2-ylmethyl-1H-pyrazole-3-yl)-benzamide]	10 to 1000
CC(C)Oc1cc(OCCc2ccsc2)cc(C(=O)Nc2ccn(Cc3ccccn3)n2)c1 [A6, 3-isopropoxy-N-(1-pyridine-2-ylmethyl-1H-pyrazole-3-yl)-5-(2-thiophene-3-yl-ethoxy)-benzamide]	10 to 1000
COC[C@H](C)Oc1cc(O[C@@H](C)Cc2ccccc2)cc(C(=O)Nc2ccn(Cc3cccnc3)n2)c1 [A7, 3-((S)-2-methoxy-1-methyl-ethoxy)-5-((S)-1-methyl-2-phenyl-ethoxy)-N-(1-pyridine-3-ylmethyl-1H-pyrazole-3-yl)-benzamide]	10 to 1000
COC[C@H](C)Oc1cc(O[C@@H](C)Cc2ccccc2)cc(C(=O)Nc2ccn(Cc3ccncc3)n2)c1 [A8, 3-((S)-2-methoxy-1-methyl-ethoxy)-5-((S)-1-methyl-2-phenyl-ethoxy)-N-(1-pyridine-4-ylmethyl-1H-pyrazole-3-yl)-benzamide]	10 to 1000
COC[C@H](C)Oc1cc(Oc2ccc(S(C)(=O)=O)cc2)cc(C(=O)Nc2ccn(Cc3cccnc3)n2)c1 [A10]	10 to 1000

The next lines start with the values.

EC50 [nM]	Compound
1000 to 10000	CC(C)Oc1cc(OCc2ccccc2)cc(C(=O)Nc2ccn(Cc3ccccn3)n2)c1 [A1, 3-Benzyloxy-5-isopropoxy-N-(1-pyridine-2-ylmethyl-1H-pyrazol-3-yl)-benzamide]
1000 to 10000	Cc1cc(NC(=O)c2cc(OCc3ccccc3)cc(OC(C)C)c2)nn1Cc1ccccn1 [A2, 3-Benzyloxy-5-isopropoxy-N-(5-methyl-1-pyridine-2-ylmethyl-1H-pyrazole-3-yl)-benzamide]
10 to 1000	CC(C)Oc1cc(OCc2ccccc2)cc(C(=O)Nc2ccn(Cc3ccccc3)n2)c1 [A3, 3-Benzyloxy-N-(1-benzyl-1H-pyrazol-3-yl)-5-isopropoxy-benzamide]
10 to 1000	COC[C@H](C)Oc1cc(O[C@@H](C)Cc2ccccc2)cc(C(=O)Nc2ccn(Cc3ccccc3)n2)c1 [A4]
10 to 1000	CC(C)Oc1cc(OCCc2ccsc2)cc(C(=O)Nc2ccn(Cc3ccccc3)n2)c1 [A9, N-(1-Benzyl-1H-pyrazol-3-yl)-3-isopropoxy-5-(2-thiophen-3-yl-ethoxy)-benzamide]
